Among the data in PubChem BioAssay AID179 (DTP/NCI, 2004) are EC50, IC50 and outcome values, retold here.

Where “and” joins values, the source holds several entries; their conditions need not be identical. Identical values can stand only once. Calls of active or inactive are those of the source.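 Rule for the calls: active = compounds giving half or more protection of infected cells from virus-caused growth loss, again on retest; inactive = the rest.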 Some results are limits rather than exact numbers.

The subject of the assay is CEM cells HIV-1 protection, formazan growth assay. Briefly: NCI AIDS Antiviral Assay. Particulars: for IC50: measured here: growth of uninfected CEM cells. An outline of the steps:
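Protection of CEM cells against HIV-1 was scored from cell growth (soluble formazan) across five concentrations, with parallel uninfected cells. Lack of protection may reflect toxicity.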

The EC50 is the concentration needed to bring the measured effect to its halfway point. What is called IC50 is the concentration that gives 50% inhibition. A higher IC50 goes with lower potency. As for `CN(C)CCC(=O)N1C/C(=C\c2ccc(Cl)c(Cl)c2)C(=O)/C(=C/c2ccc(Cl)c(Cl)c2)C1`, the EC50 is more than 33.9 µM and the IC50 is 0.0437 µM.
Regarding `CC(C)OP(=O)(OC(C)C)C([CH2][Sn]([CH3])([CH3])[Cl])P(=O)(c1ccccc1)c1ccccc1` (stereo not drawn), the EC50 is more than 200 µM and the IC50 turned out to be 2.88 µM.
With `O=C1C(C2CCCCC2)CCCC1(CO)CO` (stereo not drawn), the result was inactive.
Consider `Cc1ccc(NC(=O)C(=O)C(C(=O)c2ccc3ccccc3c2)C2OC(=O)c3ccccc32)cc1C` (stereo not drawn), for which the EC50 was more than 53.7 µM and the IC50 was 25.7 µM.
For `CN1Cc2ccccc2C2(COc3ccc(C=O)cc3C2=O)C1` (stereo not drawn), the outcome was inactive.
In the case of `Cc1cn(C2CC(N=[N+]=[N-])C(COC(=O)CCCCCCCCCCCN=[N+]=[N-])O2)c(=O)[nH]c1=O` (stereo not drawn), the EC50 was 0.0372 µM and the IC50 is 182 µM.
Regarding `CC1CCCC(C)[N+]1=C(Nc1cccc(Cl)c1)c1ccccc1` (stereo not drawn), the EC50 is more than 200 µM and the IC50 was found to be 105 µM.
For `Cn1cc([N+](=O)[O-])cc1C(=O)Nc1cc(C(=O)Nc2ccc(S(=O)(=O)O)c3cc(S(=O)(=O)O)ccc23)n(C)c1` the same measures were more than 398 µM and 178 µM.
For the compound `Cc1cc2c(cc1Br)C1(C)CCC(C)C1(C)O2` (stereo not drawn), the EC50 was more than 50.1 µM and the IC50 is more than 50.1 µM.
As to `O=C(Sc1c(-c2ccccc2)c(=O)n(-c2ccccc2)c(=S)n1-c1ccccc1)c1cccs1`, the EC50 was more than 200 µM and the IC50 came out at 21.9 µM.
As for `O=c1[nH]c2ccccc2nc1/C=C\NC(=S)Nc1cc(Cl)ccc1Cl`, the EC50 is more than 200 µM and the IC50 came out at 112 µM.
For `CCN(CC)CCC(=O)Nc1ccc2c(c1)C(=O)c1ccc(NC(=O)CCN(CC)CC)cc1C2=O`, the EC50 was more than 200 µM and the IC50 amounted to 3.39 µM.
With `O=C(O)c1nc(-c2ccc(Cl)c(Cl)c2)nc2ccc(Cl)cc12`, the outcome was inactive.
On to `O=c1[nH]c2nccnc2c2c([N+](=O)[O-])cccc12`, for which the EC50 was more than 200 µM and the IC50 was more than 200 µM.
For `COc1cc2oc(=O)cc(C)c2cc1O`, the EC50 was more than 871 µM and the IC50 turned out to be 138 µM.
Turning to `COc1cc2c(cc1OC)C(OC)N(C)c1c-2ccc2cc3c(cc12)OCO3` (stereo not drawn), the EC50 is more than 20 µM and the IC50 worked out at 0.309 µM.
Turning to `N#Cc1nc(CCc2nc(C#N)c(N)o2)oc1N`, the EC50 is more than 200 µM and the IC50 was more than 200 µM.
For the compound `Cc1csc2c1-n1cccc1C2=O`, the EC50 is more than 200 µM and the IC50 was determined as 129 µM.
Turning to `C=CCNC1=C(C(=O)OCC)C(=O)CO1`, the EC50 is more than 1170 µM and the IC50 is more than 1170 µM.
For the compound `O=C(Nc1ccc(Cl)c(Cl)c1)C(=O)C(C1OC(=O)c2ccccc21)[N+](=O)[O-]` (stereo not drawn), the EC50 is more than 87.1 µM and the IC50 is more than 87.1 µM.
With `CC(=O)Nc1nnc(SSc2nnc(NC(C)=O)s2)s1`, the EC50 is 36.3 µM and the IC50 came to 186 µM.
Consider `O=C(O)c1ccccc1/C=N\NC1=NCCCCN1`, for which the EC50 was more than 200 µM and the IC50 is more than 200 µM.
Consider `N#CC12C3C4C5C3C1C(C42)n1c(=O)n(-c2ccccc2)c(=O)n15` (stereo not drawn), for which the EC50 was more than 200 µM and the IC50 is more than 200 µM.
With `O=c1c2ccccc2[nH]c(=S)n1-c1cccc(C(F)(F)F)c1`, the EC50 was more than 200 µM and the IC50 was more than 200 µM.
On to `CCOC(=O)C(=O)Nc1nc2c(s1)C(=O)c1ccccc1C2=O`, for which the result was inactive.
With `COCC12CCC(OC)C34C5CC6(O)C(OC)C=C(C5C6OC(=O)c5ccccc5)C(C(OC)C13)C4N(C)C2` (stereo not drawn), the outcome was inactive.
Consider `O=C(Cc1ccccc1)NN1C(=O)/C(=C\c2cccc(O)c2)SC1=Nc1ccccc1`, for which the EC50 was more than 158 µM and the IC50 was found to be 102 µM.
On to `CCOC1NC(=O)NC(=O)C1(C)Cl` (stereo not drawn), for which the EC50 is more than 200 µM and the IC50 is more than 200 µM.
`COc1cc2c(cc1OCc1ccccc1)NC(=O)[C@@H]1CCCN1C2=O`: the EC50 was more than 200 µM and the IC50 was more than 200 µM.
Take `Cc1cc(C)nc(NS(=O)(=O)c2ccc(Nc3c4ccccc4nc4c(C(=O)NCCO)cccc34)cc2)n1`: the EC50 was more than 200 µM and the IC50 worked out at 7.76 µM.
For `COC(=O)C(=O)Cc1nc2ccccc2s1`, the result was inactive.
Consider `CC12C=C3CC(OC(=O)c4ccccc4)CCC3(O1)c1ccccc12` (stereo not drawn), for which the EC50 was more than 57.5 µM and the IC50 was 32.4 µM.
As to `c1ccc2c(c1)CCc1c-2n(CCN2CCOCC2)c2ccccc12`, the EC50 was more than 200 µM and the 50% inhibitory concentration (IC50) was more than 200 µM.
Consider `Oc1cc(O)c2c(c1)O[C@H](c1cc(O)c(O)c(O)c1)[C@@H](O)C2`, for which the EC50 was more than 200 µM and the IC50 amounted to 0.603 µM.
As for `CC(C)(C)OC(=O)NC(Cc1ccc(OCc2ccccc2)cn1)C(=O)O` (stereo not drawn), the EC50 was more than 200 µM and the IC50 is more than 200 µM.
Regarding `Cc1cc(-c2cccs2)oc(=O)c1NC(=O)c1cnccn1`, the EC50 was more than 200 µM and the IC50 is more than 200 µM.
With `C#CC(OC(=O)NC1CCCCC1)(c1ccccc1)c1ccccc1`, the EC50 was more than 200 µM and the IC50 stood at 20.4 µM.
`COc1ccc2c(c1OC)C1=NCCc3c(OC)c(OC)c(OC)c-2c31`: the result was inactive.
Take `S=C(Nc1ccccc1)Nc1ccccc1SC(/C=C/NNC1=NC(c2ccccc2)C(c2ccccc2)=NN1)c1ccccc1` (stereo not drawn): the EC50 is more than 15.5 µM and the IC50 was more than 15.5 µM.
In the case of `CCOC(=O)NN(C(=O)OCC)C(=C(C1CCCCC1)N1CCOCC1)N(NC(=O)OCC)C(=O)OCC`, the EC50 was 126 µM and the IC50 was 170 µM.
Consider `CN(Cc1cnc2nc(N)nc(N)c2n1)c1ccc(C(=O)NC(CCC(=O)NC(CC(P(=O)(O)O)P(=O)(O)O)C(=O)O)C(=O)O)cc1` (stereo not drawn), for which the EC50 was more than 100 µM and the IC50 is 0.219 µM.
Consider `CCOC(=O)/C=C/c1cccc(C#N)c1`, for which the EC50 was more than 178 µM and the IC50 was found to be 87.1 µM.
For `COc1ccc2c(c1)-c1nc(=S)n(CCCN(C)C)c3ccc([N+](=O)[O-])c(c13)N2`, the EC50 is more than 2 µM and the IC50 was determined as 0.389 µM.
Take `CCOC(=O)C1C[C@H]2CO[C@H](c3ccccc3)N2C1=O` (stereo partly drawn): the EC50 was more than 200 µM and the IC50 was more than 200 µM.
For the compound `NNC(=S)N/N=C/C(Cl)=C(\Cl)C(=O)O`, the EC50 is more than 28.2 µM and the IC50 was more than 28.2 µM.
Take `O=C1CC[C@H]2CO[C@H](c3ccccc3)N12`: the EC50 was more than 200 µM and the IC50 is more than 200 µM.
Consider `NC(=O)C(=O)Cc1nc2ccccc2s1`, for which the EC50 was more than 91.2 µM and the IC50 was more than 91.2 µM.
Take `CN(C)c1nc(N(C)C)nc(N(C)C23CC4CC(CC(C4)C2)C3)n1`: the EC50 is more than 200 µM and the IC50 was 64.6 µM.
Take `Cc1ccc2nc(-c3ccc4nc(-c5ccc(N=Nc6ccc(-c7nc8ccc(-c9nc%10ccc(C)c(S(=O)(=O)O)c%10s9)cc8s7)cc6)cc5)sc4c3)sc2c1S(=O)(=O)O`: the EC50 is 19.5 µM and the IC50 is more than 200 µM.
For `O=C1CSC(=S)N1c1ccc(Cl)cc1` the same measures were more than 148 µM and 56.2 µM.
In the case of `COc1ccc2c(c1)CSC(c1ccccc1)C2=O` (stereo not drawn), the EC50 is more than 97.7 µM and the IC50 was 55 µM.
Consider `Cc1c(C)c2cc3ccoc3cc2oc1=O`, for which the EC50 was more than 83.2 µM and the IC50 is more than 83.2 µM.
In the case of `CO[C@@]1(c2ccccc2)O[C@H]2OCCC2[C@H]1c1ccc(Cl)cc1` (stereo partly drawn), the EC50 was more than 11.5 µM and the IC50 is more than 11.5 µM.
Consider `Cn1cnc([N+](=O)[O-])c1Sc1nnc(-c2ccc(Cl)cc2)n1C`, for which the EC50 was more than 372 µM and the IC50 is 3.02 µM.
For `Nn1c(N=Nc2c(O)[nH]c3c(Cl)cc(Cl)cc23)n[nH]c1=S` the same measures were more than 14.1 µM and more than 14.1 µM.
As for `Cc1nc2c(Br)cc(Br)cc2c(=O)n1-c1ccccc1NC1OC(CO)C(O)C(O)C1O` (stereo not drawn), the EC50 was more than 200 µM; the IC50 was > 200 µM and 105 µM.
On to `CC12CCCC1C1CC=C3CC(SC4CCC5(C)C(=CCC6C7CCCC7(C)CCC65)C4)CCC3(C)C1CC2` (stereo not drawn), for which the EC50 is more than 200 µM and the IC50 was more than 200 µM.
In the case of `O=S1(=O)OC(c2cc(Br)c(O)c(Br)c2)(c2cc(Br)c(O)c(Br)c2)c2ccccc21`, the result was inactive.
With `C=C1CC2[C@H](C)C(=O)CCC2(C)C2=C1C1CCC(C(C)CCC(=C)C(C)C(=O)O)C1(C)CC2=O` (stereo partly drawn), the EC50 is more than 200 µM and the IC50 was 66.1 µM.
As to `CCC1(CC)C(=O)NN(C(=O)c2ccc(Cl)cc2)C1=O`, the EC50 is more than 200 µM and the IC50 was more than 200 µM.
For `CCCCN(CCCC)C1=Nc2ccccc2-n2c(nnc2C(=O)OCC)C1`, the EC50 is more than 200 µM and the IC50 stood at 41.7 µM.
With `O=c1c2ccccc2c2nc3ccccc3nc2n1C1CCCCC1`, the result was inactive.
In the case of `Oc1cc(-c2ccc(Cl)cc2)cn2c1nc1ccccc12`, the EC50 was more than 200 µM and the IC50 was 9.77 µM.
On to `COC(=O)c1ccc(/C=C2\Oc3ccccc3C2=O)cc1`, for which the EC50 was more than 200 µM and the IC50 was more than 200 µM.
In the case of `O=C1OCCOCCSCCOCCOC(=O)c2cccc1n2`, the EC50 is more than 537 µM and the IC50 is 37.2 µM.
The matching figures for `CN(C)C=Nc1c2c(nc3ccccc13)CCCC2`: more than 200 µM and more than 200 µM.
The matching figures for `COc1ccc(C2=C(Cl)c3cc(OC)c(OC)cc3C2)cc1OC`: more than 200 µM and more than 200 µM.
For `SCCCSCCSCCCSCCS`, the EC50 was more than 17.4 µM and the IC50 was more than 17.4 µM.
Take `CC(=O)OC1(C)C=C/C(=N\S(=O)(=O)c2ccc(C)cc2)c2ccccc21` (stereo not drawn): the EC50 was more than 200 µM and the IC50 worked out at 9.33 µM.
The matching figures for `Cc1cccc(C(C)C)c1NC(=O)C(=O)CC(=O)c1c(C)n([O-])c2ccccc2[n+]1=O`: more than 85.1 µM and 17 µM.
On to `Cc1cc(N(CCC#N)CCC#N)ccc1/C=C1/CN(N2C(=O)/C(=C/c3ccc(N(CCC#N)CCC#N)cc3C)N=C2c2ccccc2)C(c2ccccc2)=N1`, for which the EC50 is more than 5.01 µM and the IC50 was more than 5.01 µM.
